Reference: the kinase profiling compilation of Christmann-Franck et al. (2016)
Each block holds one compound with its values, some of them ahead of it.

How the values were obtained:
Assay in all cases: radiometric filter-binding kinase assay, Kinase HotSpot
Conditions in all cases: compound 0.5 µM; ATP 10 µM
[1] = molecular target: PKN1 (human) (UniProt Q16512)
[2] = molecular target: CHEK2 (human) (UniProt O96017)
[3] = molecular target: MYLK2 (human) (UniProt Q9H1R3)
[4] = molecular target: ULK1 (human) (UniProt O75385)
[5] = molecular target: MARK4 (human) (UniProt Q96L34)
[6] = molecular target: TLK2 (human) (UniProt Q86UE8)
[7] = molecular target: DAPK2 (human) (UniProt Q9UIK4)
[8] = molecular target: EPHA6 (human) (UniProt Q9UF33)
[9] = molecular target: TGFBR1 (human) (UniProt P36897)
[10] = molecular target: CAMK2G (human) (UniProt Q13555)
Sequence of CAMK2G (human) (Q13555 whole entry, looked up): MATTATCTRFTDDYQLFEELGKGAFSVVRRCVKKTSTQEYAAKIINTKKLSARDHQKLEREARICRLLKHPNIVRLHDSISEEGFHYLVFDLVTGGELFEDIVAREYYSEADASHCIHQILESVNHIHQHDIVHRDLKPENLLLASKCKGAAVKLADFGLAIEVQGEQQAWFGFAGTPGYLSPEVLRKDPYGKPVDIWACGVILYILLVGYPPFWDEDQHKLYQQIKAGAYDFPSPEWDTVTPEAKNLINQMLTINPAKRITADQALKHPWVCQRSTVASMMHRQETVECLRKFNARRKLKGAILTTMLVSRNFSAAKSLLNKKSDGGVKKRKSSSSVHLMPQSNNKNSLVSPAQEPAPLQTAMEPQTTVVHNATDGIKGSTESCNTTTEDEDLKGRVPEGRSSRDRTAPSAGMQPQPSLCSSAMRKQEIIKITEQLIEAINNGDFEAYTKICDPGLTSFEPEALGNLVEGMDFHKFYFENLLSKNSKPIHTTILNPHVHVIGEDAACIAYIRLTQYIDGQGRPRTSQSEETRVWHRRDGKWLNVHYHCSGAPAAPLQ

[11] = molecular target: FES (human) (UniProt P07332)
[12] = molecular target: INSRR (human) (UniProt P14616)
[13] = molecular target: ROCK2 (human) (UniProt O75116)
[14] = molecular target: HIPK2 (human) (UniProt Q9H2X6)
[15] = molecular target: PRKACG (human) (UniProt P22612)
[16] = molecular target: MAPK3 (human) (UniProt P27361)
[17] = molecular target: FGFR4 (human) (UniProt P22455)
Sequence of FGFR4 (human) (P22455 whole entry, looked up): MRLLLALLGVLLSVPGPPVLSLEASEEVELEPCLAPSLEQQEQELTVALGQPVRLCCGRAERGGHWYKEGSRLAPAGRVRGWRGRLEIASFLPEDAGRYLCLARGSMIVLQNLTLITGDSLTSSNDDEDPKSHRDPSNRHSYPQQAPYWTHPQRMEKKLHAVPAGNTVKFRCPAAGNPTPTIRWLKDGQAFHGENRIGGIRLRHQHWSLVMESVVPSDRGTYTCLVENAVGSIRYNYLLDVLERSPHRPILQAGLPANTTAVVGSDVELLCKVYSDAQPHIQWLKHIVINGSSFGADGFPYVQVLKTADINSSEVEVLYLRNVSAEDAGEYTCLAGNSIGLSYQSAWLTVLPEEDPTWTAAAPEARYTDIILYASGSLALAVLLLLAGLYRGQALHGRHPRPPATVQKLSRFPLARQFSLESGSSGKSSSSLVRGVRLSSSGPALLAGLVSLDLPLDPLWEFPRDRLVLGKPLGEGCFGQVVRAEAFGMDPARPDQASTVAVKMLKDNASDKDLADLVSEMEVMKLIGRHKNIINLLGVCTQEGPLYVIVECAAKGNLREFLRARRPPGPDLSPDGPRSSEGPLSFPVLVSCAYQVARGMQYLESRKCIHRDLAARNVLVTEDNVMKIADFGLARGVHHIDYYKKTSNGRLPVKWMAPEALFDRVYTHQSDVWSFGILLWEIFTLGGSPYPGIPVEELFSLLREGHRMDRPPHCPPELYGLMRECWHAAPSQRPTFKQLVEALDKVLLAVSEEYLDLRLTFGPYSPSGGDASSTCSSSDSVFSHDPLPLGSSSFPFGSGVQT

[18] = molecular target: CDC42BPA (human) (UniProt Q5VT25)
[19] = molecular target: MELK (human) (UniProt Q14680)
[20] = molecular target: PDGFRB (human) (UniProt P09619)
[21] = molecular target: HIPK3 (human) (UniProt Q9H422)
[22] = molecular target: STK39 (human) (UniProt Q9UEW8)
[23] = molecular target: EPHA3 (human) (UniProt P29320)
[24] = molecular target: MKNK2 (human) (UniProt Q9HBH9)
Sequence of MKNK2 (human) (Q9HBH9 whole entry, looked up): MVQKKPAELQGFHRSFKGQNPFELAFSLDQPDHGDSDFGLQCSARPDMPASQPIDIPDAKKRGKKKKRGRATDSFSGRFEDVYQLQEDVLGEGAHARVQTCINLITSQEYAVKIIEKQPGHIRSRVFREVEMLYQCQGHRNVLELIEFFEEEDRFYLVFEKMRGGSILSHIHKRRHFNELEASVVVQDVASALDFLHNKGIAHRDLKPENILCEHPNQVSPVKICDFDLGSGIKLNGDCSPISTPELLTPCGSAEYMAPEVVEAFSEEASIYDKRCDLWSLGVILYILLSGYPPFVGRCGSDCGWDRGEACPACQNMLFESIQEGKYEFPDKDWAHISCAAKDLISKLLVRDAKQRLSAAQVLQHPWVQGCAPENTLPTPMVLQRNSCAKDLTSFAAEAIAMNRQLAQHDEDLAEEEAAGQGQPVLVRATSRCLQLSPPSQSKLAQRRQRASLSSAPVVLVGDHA

[25] = molecular target: HIPK1 (human) (UniProt Q86Z02)
[26] = molecular target: CSNK1G2 (human) (UniProt P78368)
[27] = molecular target: BRAF (human) (UniProt P15056)
Sequence of BRAF (human) (P15056 whole entry, looked up): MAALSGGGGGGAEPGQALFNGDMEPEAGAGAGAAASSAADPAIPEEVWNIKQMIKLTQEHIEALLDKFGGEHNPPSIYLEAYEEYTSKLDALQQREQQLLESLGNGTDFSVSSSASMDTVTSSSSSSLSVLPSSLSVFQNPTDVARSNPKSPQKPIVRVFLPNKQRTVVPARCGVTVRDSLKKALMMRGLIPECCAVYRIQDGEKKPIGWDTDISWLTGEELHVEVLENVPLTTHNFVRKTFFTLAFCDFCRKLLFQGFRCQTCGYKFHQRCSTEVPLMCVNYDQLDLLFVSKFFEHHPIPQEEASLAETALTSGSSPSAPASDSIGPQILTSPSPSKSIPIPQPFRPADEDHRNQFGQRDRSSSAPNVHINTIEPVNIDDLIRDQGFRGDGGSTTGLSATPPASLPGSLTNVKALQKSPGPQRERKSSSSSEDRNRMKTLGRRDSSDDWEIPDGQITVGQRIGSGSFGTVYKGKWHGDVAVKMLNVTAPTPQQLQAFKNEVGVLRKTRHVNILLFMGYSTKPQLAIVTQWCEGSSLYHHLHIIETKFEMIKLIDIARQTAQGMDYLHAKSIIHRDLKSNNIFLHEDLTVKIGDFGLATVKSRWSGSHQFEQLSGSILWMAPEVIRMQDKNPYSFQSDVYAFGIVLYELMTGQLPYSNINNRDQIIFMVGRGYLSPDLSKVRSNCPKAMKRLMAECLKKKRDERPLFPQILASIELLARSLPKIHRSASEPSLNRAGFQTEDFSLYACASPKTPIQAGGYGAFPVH

[28] = molecular target: INSR (human) (UniProt P06213)
[29] = molecular target: CDK2 CCNE1 (human) (UniProt P24941+P24864)
[30] = molecular target: RPS6KA6 KD1 KD2 (human) (UniProt Q9UK32)
[31] = molecular target: LRRK2 (human) (UniProt Q5S007)
[32] = molecular target: NEK6 (human) (UniProt Q9HC98)
Sequence of NEK6 (human) (Q9HC98 whole entry, looked up): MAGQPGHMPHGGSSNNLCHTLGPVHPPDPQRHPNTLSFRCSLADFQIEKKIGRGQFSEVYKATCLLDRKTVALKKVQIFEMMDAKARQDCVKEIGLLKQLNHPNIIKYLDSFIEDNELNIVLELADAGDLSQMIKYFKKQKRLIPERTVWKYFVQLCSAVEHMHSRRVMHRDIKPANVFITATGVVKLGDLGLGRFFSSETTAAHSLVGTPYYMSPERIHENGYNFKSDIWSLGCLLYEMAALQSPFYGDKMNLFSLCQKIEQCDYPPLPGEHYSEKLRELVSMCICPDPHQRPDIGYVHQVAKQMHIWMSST

[33] = molecular target: TEK (human) (UniProt Q02763)
[34] = molecular target: CLK4 (human) (UniProt Q9HAZ1)
[35] = molecular target: AURKC (human) (UniProt Q9UQB9)
Sequence of AURKC (human) (Q9UQB9 whole entry, looked up): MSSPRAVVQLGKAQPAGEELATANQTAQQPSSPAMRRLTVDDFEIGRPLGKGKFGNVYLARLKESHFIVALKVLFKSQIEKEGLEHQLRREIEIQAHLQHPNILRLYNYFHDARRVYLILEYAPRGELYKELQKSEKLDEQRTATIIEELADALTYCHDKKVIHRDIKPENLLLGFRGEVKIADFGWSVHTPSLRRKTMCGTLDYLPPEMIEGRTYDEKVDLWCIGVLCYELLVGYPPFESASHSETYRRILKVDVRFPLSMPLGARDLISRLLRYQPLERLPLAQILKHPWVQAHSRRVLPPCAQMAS

[36] = molecular target: CDK2 CCNA2 (human) (UniProt P24941+P20248)
[37] = molecular target: MAP3K5 (human) (UniProt Q99683)
[38] = molecular target: ACVR1 (human) (UniProt Q04771)
[39] = molecular target: PAK3 (human) (UniProt O75914)
Sequence of PAK3 (human) (O75914 whole entry, looked up): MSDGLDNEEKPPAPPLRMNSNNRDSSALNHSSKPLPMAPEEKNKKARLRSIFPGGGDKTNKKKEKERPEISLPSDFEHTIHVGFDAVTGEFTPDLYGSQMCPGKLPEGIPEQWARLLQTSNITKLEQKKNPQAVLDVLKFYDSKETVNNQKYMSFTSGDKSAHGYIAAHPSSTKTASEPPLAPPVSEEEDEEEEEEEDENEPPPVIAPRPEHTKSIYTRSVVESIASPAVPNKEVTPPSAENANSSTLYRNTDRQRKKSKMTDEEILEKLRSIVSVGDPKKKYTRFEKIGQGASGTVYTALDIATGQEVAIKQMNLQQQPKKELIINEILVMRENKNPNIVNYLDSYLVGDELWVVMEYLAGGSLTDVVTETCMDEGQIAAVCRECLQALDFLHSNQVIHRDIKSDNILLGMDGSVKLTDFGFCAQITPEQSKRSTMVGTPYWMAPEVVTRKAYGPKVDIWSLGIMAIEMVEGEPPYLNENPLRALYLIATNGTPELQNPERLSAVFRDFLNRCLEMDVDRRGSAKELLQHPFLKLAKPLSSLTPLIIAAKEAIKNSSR

[40] = molecular target: KDR (human) (UniProt P35968)
[41] = molecular target: TNK2 (human) (UniProt Q07912)

Sequence of PKN1 (human) (Q16512 whole entry, looked up): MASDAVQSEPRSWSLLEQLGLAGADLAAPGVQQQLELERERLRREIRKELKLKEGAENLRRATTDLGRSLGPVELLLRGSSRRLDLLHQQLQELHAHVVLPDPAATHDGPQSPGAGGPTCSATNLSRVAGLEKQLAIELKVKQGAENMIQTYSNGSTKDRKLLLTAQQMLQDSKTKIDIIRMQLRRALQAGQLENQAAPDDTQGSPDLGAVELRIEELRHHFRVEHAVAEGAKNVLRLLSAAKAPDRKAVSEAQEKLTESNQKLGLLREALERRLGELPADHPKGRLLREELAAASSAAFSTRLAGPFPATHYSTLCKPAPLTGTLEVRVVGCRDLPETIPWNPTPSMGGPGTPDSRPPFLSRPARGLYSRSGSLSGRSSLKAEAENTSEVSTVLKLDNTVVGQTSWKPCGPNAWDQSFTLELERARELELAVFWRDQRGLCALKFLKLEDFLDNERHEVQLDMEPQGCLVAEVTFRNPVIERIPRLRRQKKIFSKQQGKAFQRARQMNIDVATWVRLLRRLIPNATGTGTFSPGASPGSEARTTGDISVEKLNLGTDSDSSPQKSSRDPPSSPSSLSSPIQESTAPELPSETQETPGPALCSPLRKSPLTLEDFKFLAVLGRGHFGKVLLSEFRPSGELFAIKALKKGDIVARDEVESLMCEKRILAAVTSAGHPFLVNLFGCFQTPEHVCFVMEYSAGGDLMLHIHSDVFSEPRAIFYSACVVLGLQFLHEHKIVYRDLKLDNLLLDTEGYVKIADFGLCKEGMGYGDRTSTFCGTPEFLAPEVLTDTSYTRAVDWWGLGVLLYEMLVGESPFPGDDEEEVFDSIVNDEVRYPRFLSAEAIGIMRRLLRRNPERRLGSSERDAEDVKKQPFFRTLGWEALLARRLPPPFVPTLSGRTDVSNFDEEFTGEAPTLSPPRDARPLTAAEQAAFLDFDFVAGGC

- residual activity [1]: 104%
- residual activity [2]: 76.6%
- residual activity [3]: 92.4%
- residual activity [4]: 106%
- residual activity [5]: 85.2%
- residual activity [6]: 112%
- residual activity [7]: 87.6%
- residual activity [8]: 63.6%
- residual activity [9]: 96.1%
- residual activity [10]: 95%
- residual activity [11]: 94.9%
- residual activity [12]: 81.9%
- residual activity [13]: 90.5%
- residual activity [14]: 106%
- residual activity [15]: 106%
- residual activity [16]: 108%
- residual activity [17]: 98%
- residual activity [18]: 105%
- residual activity [19]: 101%
- residual activity [20]: 73.4%
- residual activity [21]: 116%
- residual activity [22]: 84.8%
- residual activity [23]: 96.3%
- residual activity [24]: 94.9%
- residual activity [25]: 114%
- residual activity [26]: 93.7%
- residual activity [27]: 85.4%
- residual activity [28]: 103%
- residual activity [29]: 91.3%
- residual activity [30]: 96.6%
- residual activity [31]: 86.2%
- residual activity [32]: 107%
- residual activity [33]: 94.3%
- residual activity [34]: 98%
- residual activity [35]: 95%
- residual activity [36]: 104%
- residual activity [37]: 99.1%
- residual activity [38]: 95.4%
- residual activity [39]: 98.4%
- residual activity [40]: 75%
- residual activity [41]: 2.7%
Compound: Nc1ncnc2c1c(-c1ccc(Oc3ccccc3)cc1)cn2C1CCCC1

Compound: N#CC(C#N)=C(N)/C(C#N)=C/c1ccc(O)cc1
- residual activity [1]: 89%
- residual activity [2]: 95.5%
- residual activity [3]: 99.4%
- residual activity [4]: 89.3%
- residual activity [5]: 94.3%
- residual activity [6]: 89.4%
- residual activity [7]: 95.7%
- residual activity [8]: 98.6%
- residual activity [9]: 93%
- residual activity [10]: 89.4%
- residual activity [11]: 101%
- residual activity [12]: 99.9%
- residual activity [13]: 98.3%
- residual activity [14]: 102%
- residual activity [15]: 96.8%
- residual activity [16]: 101%
- residual activity [17]: 91.1%
- residual activity [18]: 96.2%
- residual activity [19]: 101%
- residual activity [20]: 98.8%
- residual activity [21]: 102%
- residual activity [22]: 90.3%
- residual activity [23]: 98.3%
- residual activity [24]: 79.1%
- residual activity [25]: 103%
- residual activity [26]: 104%
- residual activity [27]: 90.1%
- residual activity [28]: 94.2%
- residual activity [29]: 97%
- residual activity [30]: 104%
- residual activity [31]: 97.1%
- residual activity [32]: 97.3%
- residual activity [33]: 104%
- residual activity [34]: 101%
- residual activity [35]: 101%
- residual activity [36]: 97.9%
- residual activity [37]: 103%
- residual activity [38]: 93.8%
- residual activity [39]: 98.4%
- residual activity [40]: 97.2%
- residual activity [41]: 98.1%

Compound: CCC(=O)Nc1ccc2ncnc(Nc3cccc(Br)c3)c2c1
- residual activity [1]: 101%
- residual activity [2]: 87.1%
- residual activity [3]: 96.4%
- residual activity [4]: 103%
- residual activity [5]: 80.2%
- residual activity [6]: 104%
- residual activity [7]: 121%
- residual activity [8]: 79.5%
- residual activity [9]: 101%
- residual activity [10]: 105%
- residual activity [11]: 102%
- residual activity [12]: 98.4%
- residual activity [13]: 86.1%
- residual activity [14]: 97%
- residual activity [15]: 95.5%
- residual activity [16]: 101%
- residual activity [17]: 95.2%
- residual activity [18]: 101%
- residual activity [19]: 93.4%
- residual activity [20]: 98%
- residual activity [21]: 92.1%
- residual activity [22]: 96.1%
- residual activity [23]: 106%
- residual activity [24]: 55.6%
- residual activity [25]: 104%
- residual activity [26]: 98.1%
- residual activity [27]: 93%
- residual activity [28]: 101%
- residual activity [29]: 84.9%
- residual activity [30]: 90.6%
- residual activity [31]: 92.4%
- residual activity [32]: 105%
- residual activity [33]: 91.2%
- residual activity [34]: 99.4%
- residual activity [35]: 102%
- residual activity [36]: 95.1%
- residual activity [37]: 102%
- residual activity [38]: 93.7%
- residual activity [39]: 105%
- residual activity [40]: 96.5%
- residual activity [41]: 93.5%
